Results on 16 molecules are retold here after the Deep4Chem optical property database.

The series is described as follows: solvent given as SMILES.

Consider `CC1(C)Nc2ccccc2-c2[nH]c3ccccc3c(=O)c21`, for which the emission maximum is reported as 483 nm (in C1CCOC1); 507 nm (in CC#N); 521 nm (in CCCCO); 522 nm (in CCCO); 523 nm (in CCO); 491 nm (in CCOC(C)=O). The emission maximum reads like this: (in CN(C)C=O) 506 nm; (in CO) 531 nm; (in CS(C)=O) 510 nm; (in Cc1ccccc1) 471 nm; (in ClC(Cl)(Cl)Cl) 460 nm; (in ClCCl) 491 nm. For the same molecule, the emission maximum reads like this: (in O) 552 nm; (in c1ccccc1) 474 nm.

As for `COc1ccc(-c2nc(-c3ccc(OC)cc3C)nc(-c3ccc(N4c5ccccc5C5(c6ccccc6-c6ccccc65)c5ccccc54)cc3C)n2)c(C)c1`, the emission maximum was determined as 467 nm (in Cc1ccccc1) and 469 nm (in O=P(c1ccccc1)(c1ccccc1)c1ccccc1Oc1ccccc1P(=O)(c1ccccc1)c1ccccc1).

In the case of `c1cc2c3c(cccc3c1)-c1c-2c2ccccc2c2ccccc12`, the emission maximum (in CCCCCCC) stood at 536 nm.

`COc1cc2c(cc1OC)C1=C[C@H](c3ccc(C)cc3)C3(C(C#N)=C(C#N)N1CC2)c1cc(Br)ccc1-c1ccc(Br)cc13` showed an emission maximum (in ClCCl) of 405 nm.

Consider `CC(C)(C)c1ccc2c(c1)c1cc(C(C)(C)C)ccc1n2-c1ccc(N(c2ccc(-c3ccc4c(c3)C(C)(C)c3cc(-c5ccc(N(c6ccc(-n7c8ccc(C(C)(C)C)cc8c8cc(C(C)(C)C)ccc87)cc6)c6ccc(-n7c8ccc(C(C)(C)C)cc8c8cc(C(C)(C)C)ccc87)cc6)cc5)ccc3-4)cc2)c2ccc(-n3c4ccc(C(C)(C)C)cc4c4cc(C(C)(C)C)ccc43)cc2)cc1`, for which the emission maximum (in ClCCl) is 443 nm.

`O=C(c1ccc(N2c3ccccc3Oc3ccccc32)cc1)c1cccc(C(=O)c2ccc(N3c4ccccc4Oc4ccccc43)cc2)c1`: the emission maximum (in Cc1ccccc1) was 566 nm and the emission maximum (in c1cc(-c2cccc(-n3c4ccccc4c4ccccc43)c2)cc(-n2c3ccccc3c3ccccc32)c1) is on record as 541 nm.

With `CCCCCCCCN1C(=O)c2ccc3c4c(-c5ccc6c7ccccc7n(-c7ccccc7)c6c5)cc5c6c(ccc(c7c(-c8ccc9c%10ccccc%10n(-c%10ccccc%10)c9c8)cc(c2c37)C1=O)c64)C(=O)N(CCCCCCCC)C5=O`, the emission maximum (in ClC(Cl)Cl) stood at 647 nm.

As to `N#C/C(=C\c1ccc(Cl)cc1)c1nc2ccccc2s1`, the emission maximum by setting is: (in C1CCCCC1) 390 nm; (in CO) 430 nm.

In turn, `S=c1[nH]nc(-c2ccc(/C=C/c3ccc(-c4n[nH]c(=S)o4)cc3)cc2)o1` came in with an emission maximum (in CN(C)C=O) of 401 nm.

Regarding `CC(C)(C)c1ccc(C2=C(c3ccc(C(C)(C)C)cc3)C(c3ccc(C(C)(C)C)cc3)=[N+]3C2=C(c2ccccc2)c2c(-c4ccc(C(C)(C)C)cc4)c(-c4ccc(C(C)(C)C)cc4)c(-c4ccc(C(C)(C)C)cc4)n2[B-]3(F)F)cc1`, the emission maximum by setting is: (in C1CCCCC1) 634 nm; (in C1CCOC1) 637 nm; (in CC#N) 629 nm; (in Cc1ccccc1) 639 nm; (in ClCCl) 636 nm.

With `CCn1c2ccccc2c2ccc(-c3ccc(OC)cc3)cc21`, under “in C1CCCCC1”, the emission maximum is reported as 383 nm.

For `COc1ccc(N(c2ccc(OC)cc2)c2ccc(-c3ccc(C=C(C#N)C#N)o3)cc2)cc1`, the emission maximum (in ClC(Cl)Cl) is given as 696 nm.

As to `Clc1nnc(Oc2ccc(N(c3ccc(Br)cc3)c3ccc(Br)cc3)cc2)nn1`, the emission maximum (in ClCCl) turned out to be 559 nm.

Take `COc1nc(Nc2ccc3c4cccc5cccc(c6cccc2c63)c54)nc(OC)n1`: the emission maximum is recorded as 478 nm (in C1COCCO1), 479 nm (in CC#N), 477 nm (in CCCCOCCCC) and 477 nm (in CCOC(C)=O).

Consider `Cc1cc(C)c(B(c2ccccc2N(c2ccccc2)c2ccccc2)c2c(C)cc(C)cc2C)c(C)c1`, for which the emission maximum stood at 532.95 nm (in CC(C)=O), 498 nm (in Cc1ccccc1) and 518.5 nm (in ClCCl).

For `O=C(O)COc1cccc(OCC(=O)O)c1-c1c2ccc(=[N+]3CCCCC3)cc-2oc2cc(N3CCCCC3)ccc12`, the emission maximum runs as follows: (in CCO) 580 nm; (in O) 594 nm.
